We go through two compounds from PMC8968713, “Displacement of Native FXYD Protein From Na^+/K^+-ATPase With Novel FXYD Peptide Derivatives: Effects on Doxorubicin Cytotoxicity” (Frontiers in Oncology, 2022).

One data set has as its system BxPC-3 cells. The data set can be described thus: XTT cell viability, BxPC-3 cells. Type of data set: cell-based. The note with it: Homo sapiens, BXPC-3, 48 h, 5 experiments. The method, then:
(§1) Human pancreatic cancer cells BxPC-3, Panc-1, non-transformed human mammary epithelial MCF-10A cells, and human breast cancer cells MCF-7 and MDA-MB-468 were obtained from the American Type Culture Collection (ATCC, Manassas, VA, USA). The cells were then cultured as previously described ([6], [9], [11]). All cells were used within 20 passages of thawing and were free of mycoplasma contamination as ascertained by mycoplasma PCR detection ([12]).
(§2) Cell metabolic activity was assayed as described ([14]) by estimating the reduction of XTT (2,3-bis(2-methoxy-4-nitro-5-sulfophenyl)-2H-tetrazolium-5-carboxyanilide), using a commercially available kit (Cell Signaling Technology, Danvers, MA, USA) according to the manufacturer’s instructions. Metabolic activity was used as a surrogate for viability. For each set of experimental groups, we performed 5 experiments with 4 replicates. Caspase-3-like activity is increased through a protease cascade during the early stage of apoptosis ([15]), and we measured activities of Caspase 3/7 (DEVDase) using the caspase fluorogenic substrate (Calbiochem, San Diego, CA, USA) as described ([9]).
(§3) Results are presented as mean ± standard deviation (SD). The IC50 values for Dox in cell viability studies were calculated by GraphPad Prism. Statistical comparisons were made with a Mann–Whitney test, ANOVA, and repeated-measure ANOVA with Geisser–Greenhouse epsilon correction. p < 0.05 was considered statistically significant.
(§4) We examined if displacement of WT FXYD3 from Na^+/K^+-ATPase is reflected in viability of cells exposed to FXYD3-pep SKSK with and without co-exposure to Dox for 48 h. The culture medium that contained FXYD3-pep SKSK and Dox was replaced with fresh medium every 24 h.
In general terms: Formazan colour is commonly taken as a measure of viable cells.

In a further data set the test system is MCF-7 cells. Put plainly: XTT cell viability, MCF-7 cells. The class given is cell-based, human. The note with it: for IC50: Homo sapiens, MCF7, 48 h, 48 h, XTT, 5 experiments. The method, then: as §1, §2, §3, §4

Read-outs that look alike come from different tables or passages of the source.

`COc1cccc2c1C(=O)c1c(O)c3c(c(O)c1C2=O)C[C@@](O)(C(=O)CO)C[C@@H]3O[C@H]1C[C@H](N)[C@H](O)[C@H](C)O1` [Dox, doxorubicin]: the IC50 with BxPC-3 cells (Dox alone (no peptide)) was approximately 1740 nM; with BxPC-3 cells (co-exposure to 1 μM FXYD3-pep SKSK, read-out: IC50 for Dox, cell viability), approximately 400 nM; with BxPC-3 cells (co-exposure to 2 μM FXYD3-pep SKSK, read-out: IC50 for Dox, cell viability), approximately 300 nM; with MCF-7 cells (Dox alone (no peptide)), approximately 4300 nM; in the data set on MCF-7 cells (co-exposure to 2 µM FXYD3-pep SKSK, read-out: IC50 for Dox, cell viability), approximately 500 nM.
As for `C[C@@H]1O[C@@H](O[C@H]2C[C@@H](O)[C@]3(CO)[C@H]4[C@H](O)C[C@]5(C)[C@@H](C6=CC(=O)OC6)CC[C@]5(O)[C@@H]4CC[C@]3(O)C2)[C@H](O)[C@H](O)[C@H]1O` [ouabain], the “Effect of ouabain on Dox-induced cytotoxicity” value in the data set with MCF-7 cells (48-h co-exposure with 1 μM Dox, N = 5) is “modest augmentation of Dox-induced cytotoxicity decreased with an increase in ouabain concentration”. Further, in the data set on MCF-7 cells (48-h exposure, ouabain 25-150 nM, N = 5), the “Effect of ouabain alone on cell viability” value is “reduced cell viability in a concentration-dependent manner”.

As a reminder, the IC50 is the concentration that gives 50% inhibition.
